Source: patent publication US12011444B2, “N-substituted indole derivatives as PGE2 receptor modulators” (Idorsia Pharmaceuticals Ltd, priority 2015, dated 2024)

Experiments:
PTGER2 (EP2) = PTGER2 (EP2) (Homo sapiens (Human), UniProt P43116); assay: hEP2 b-arrestin assay (PathHunter HEK 293 PTGER2 b-arrestin cells); format: cell-based
Text: (§1) The assay is using the PathHunter™ HEK 293 PTGER2 and PTGER4 b-arrestin cell lines from DiscoverX. The system is based on the Enzyme Fragment Complementation Technology. Two complementing fragments of the b-galactosidase enzyme are expressed within stably transfected cells. The larger portion of b-gal, termed EA for Enzyme Acceptor, is fused to the C-terminus of b-arrestin 2. The smaller fragment, termed ProLink™ tag, is fused to PTGER2 (EP2) or PTRGER4 (EP4) at the C-terminus. Upon activation, b-arrestin is recruited which forces the interaction of ProLink and EA, allowing complementation of the two fragments of b-gal and the formation of a functional enzyme which is capable of hydrolysing the substrate and generating a chemiluminescent signal.
(§2) 5000 cells per well of a 384 well plate (white with white bottom Greiner 781080) are seeded in 20 ul per well of GM. Plate is incubated at 37° C., 5% C02 for 24 hours.
Plate is pre-incubated 15 minutes at 37° C. Then five microliters of PGE2 (final conc. 5 μM) are transferred into the assay plate. Plate is incubated 120 minutes at 37° C.
(§3) Twelve μl of reagent are transferred to the assay plate and incubate for 1 hour at room temperature in the dark. Luminescence counts are read on a BMG Fluostar Optima reader according to manufacturer's instructions. For each compound concentration calculate of the percentage of activity compared to DMSO control value as average±STDEV. (each concentration is measured in duplicate)

PTRGER4 (EP4) = PTRGER4 (EP4) (Homo sapiens (Human), UniProt P35408); assay: hEP4 b-arrestin assay (PathHunter HEK 293 PTGER4 b-arrestin cells); format: cell-based
Text: as §1, §2
Plate is pre-incubated 15 minutes at 37° C. Then five microliters of PGE2 (final conc. 20 nM) are transferred into the assay plate. Plate is incubated 120 minutes at 37° C.
as §3, with “average±STDEV.” for “average±STDEV. (each concentration is measured in duplicate)”

[1] = antagonistic activity on hEP2, mean where measured multiple times
[2] = antagonistic activity on hEP4, mean where measured multiple times
[3] = hEP2 b-arrestin assay (values without asterisk)
[4] = hEP4 b-arrestin assay (values without asterisk)

Chain of PTGER2 (EP2) (P43116 whole entry, the tested form may be a part): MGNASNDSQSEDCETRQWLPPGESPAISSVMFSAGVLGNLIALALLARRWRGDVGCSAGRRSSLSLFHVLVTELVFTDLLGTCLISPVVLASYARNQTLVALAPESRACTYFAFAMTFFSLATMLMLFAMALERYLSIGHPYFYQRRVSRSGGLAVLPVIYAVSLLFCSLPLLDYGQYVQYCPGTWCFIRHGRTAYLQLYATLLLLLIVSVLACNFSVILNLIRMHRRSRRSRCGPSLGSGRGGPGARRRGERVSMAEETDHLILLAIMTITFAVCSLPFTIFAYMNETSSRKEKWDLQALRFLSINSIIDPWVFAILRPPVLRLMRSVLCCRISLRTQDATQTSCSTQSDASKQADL
Chain of PTRGER4 (EP4) (P35408 whole entry, looked up): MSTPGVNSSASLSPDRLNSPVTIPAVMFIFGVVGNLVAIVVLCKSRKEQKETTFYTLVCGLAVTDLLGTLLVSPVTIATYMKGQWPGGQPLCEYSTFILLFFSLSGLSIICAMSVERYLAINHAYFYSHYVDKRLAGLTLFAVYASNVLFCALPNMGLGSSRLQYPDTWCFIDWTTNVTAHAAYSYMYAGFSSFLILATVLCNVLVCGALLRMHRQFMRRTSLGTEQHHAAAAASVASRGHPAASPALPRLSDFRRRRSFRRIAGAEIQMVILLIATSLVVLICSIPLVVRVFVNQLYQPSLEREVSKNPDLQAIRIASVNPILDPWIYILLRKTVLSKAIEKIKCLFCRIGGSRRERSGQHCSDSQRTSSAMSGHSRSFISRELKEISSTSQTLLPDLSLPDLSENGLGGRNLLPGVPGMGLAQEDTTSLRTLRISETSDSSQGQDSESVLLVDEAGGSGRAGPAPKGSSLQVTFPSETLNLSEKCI

Compound	IC50 (PTGER2 (EP2); [1])	IC50 (PTRGER4 (EP4); [2])	IC50 (PTGER2 (EP2); [3])	IC50 (PTRGER4 (EP4); [4])
COc1ccc(F)c2c1cc(C#N)n2CCNc1cc(-c2cc3ccccc3[nH]2)ncn1 [Example 961, 7-Fluoro-1-{2-[6-(1H-indol-2-yl)-pyrimidin-4-ylamino]-ethyl}-4-methoxy-1H-indole-2-carbonitrile]	–	–	12 nM	34 nM
CCOc1cc(-c2cc(NCCn3c(C#N)cc4c(OC)ccc(F)c43)ncn2)ccc1-c1noc(=O)[nH]1 [Example 820]	–	–	6 nM	2 nM
COc1ccc(F)c2c1cc(C#N)n2CCNc1cc(-c2ccc(C(O)(O)C(F)(F)F)cc2)ncn1 [Example 1018, 7-Fluoro-4-methoxy-1-(2-{6-[4-(2,2,2-trifluoro-1,1-dihydroxy-ethyl)-phenyl]-pyrimidin-4-ylamino}-ethyl)-1H-indole-2-carbonitrile]	–	–	94 nM	69 nM
COc1cccc2c1cc(C#N)n2CCNc1cc(-c2cc(C(F)(F)F)c(C(=O)O)s2)ncn1 [Example 910, 5-{6-[2-(2-Cyano-4-methoxy-indol-1-yl)-ethylamino]-pyrimidin-4-yl}-3-trifluoromethyl-thiophene-2-carboxylic acid]	–	–	23 nM	10 nM
CCOc1c(C(=O)O)ccc(-c2cc(NCCn3c(C#N)cc4c(OC)ccc(F)c43)ncn2)c1F [Example 928, 4-{6-[2-(2-Cyano-7-fluoro-4-methoxy-indol-1-yl)-ethylamino]-pyrimidin-4-yl}-2-ethoxy-3-fluoro-benzoic acid]	–	–	37 nM	45 nM
COc1ccc(F)c2c1cc(C)n2CCNc1cc(-c2cc(OCC(F)(F)F)c(C(=O)O)s2)ncn1 [Example 832, 5-{6-[2-(7-Fluoro-4-methoxy-2-methyl-indol-1-yl)-ethylamino]-pyrimidin-4-yl}-3-(2,2,2-trifluoro-ethoxy)-thiophene-2-carboxylic acid]	–	–	5 nM	25 nM
CCCOc1nc(-c2cc(NCCn3c(C)cc4c(OC)ccc(F)c43)ncn2)sc1C(=O)O [Example 1035, 2-{6-[2-(7-Fluoro-4-methoxy-2-methyl-indol-1-yl)-ethylamino]-pyrimidin-4-yl}-4-propoxy-thiazole-5-carboxylic acid]	–	–	2 nM	29 nM
CCNc1csc(-c2cc(NCCn3c(C)cc4c(OC)ccc(F)c43)ncn2)c1 [Example 1067, [6-(4-Ethylamino-thiophen-2-yl)-pyrimidin-4-yl]-[2-(7-fluoro-4-methoxy-2-methyl-indol-1-yl)-ethyl]-amine]	–	–	88 nM	67 nM
COc1ccc(F)c2c1cc(C)n2CCNc1cc(-c2ccc(C(=O)O)c(OCC(F)(F)F)c2)ncn1 [Example 844, 4-{6-[2-(7-Fluoro-4-methoxy-2-methyl-indol-1-yl)-ethylamino]-pyrimidin-4-yl}-2-(2,2,2-trifluoro-ethoxy)-benzoic acid]	–	–	5 nM	142 nM
COc1ccc(F)c2c1cc(C#N)n2CCNc1cc(-c2cccc(CCC(=O)O)c2)ncn1 [Example 1011, 3-(3-{6-[2-(2-Cyano-7-fluoro-4-methoxy-indol-1-yl)-ethylamino]-pyrimidin-4-yl}-phenyl)-propionic acid]	–	–	120 nM	228 nM
CCOc1cc(-c2cc(NCCn3c(C)cc4c(OC)ccc(F)c43)ncn2)sc1NC=O [Example 1072, N-(3-Ethoxy-5-{6-[2-(7-fluoro-4-methoxy-2-methyl-indol-1-yl)-ethylamino]-pyrimidin-4-yl}-thiophen-2-yl)-formamide]	–	–	3 nM	17 nM
CCOc1cc(-c2cc(NCCn3c(C)cc4c(OC)ccc(F)c43)ncn2)ccc1-c1ncco1 [Example 842, [6-(3-Ethoxy-4-oxazol-2-yl-phenyl)-pyrimidin-4-yl]-[2-(7-fluoro-4-methoxy-2-methyl-indol-1-yl)-ethyl]-amine]	–	–	13 nM	94 nM
COc1ccc(F)c2c1cc(C#N)n2CCNc1cc(-c2ccc(-c3cn(C)c(C4CC4)n3)cc2)ncn1 [Example 827, 1-(2-{6-[4-(2-Cyclopropyl-1-methyl-1H-imidazol-4-yl)-phenyl]-pyrimidin-4-ylamino}-ethyl)-7-fluoro-4-methoxy-1H-indole-2-carbonitrile]	–	–	16 nM	7 nM
COc1ccc(F)c2c1cc(C)n2CCNc1cc(-c2cc(C(F)(F)F)c(-c3nn[nH]n3)s2)ncn1 [Example 1060, [2-(7-Fluoro-4-methoxy-2-methyl-indol-1-yl)-ethyl]-{6-[5-(2H-tetrazol-5-yl)-4-trifluoromethyl-thiophen-2-yl]-pyrimidin-4-yl}-amine]	–	–	17 nM	36 nM
CCOc1cc(-c2cc(NCCn3c(C)cc4c(F)ccc(C)c43)ncn2)ccc1C(=O)O [Example 812, 2-Ethoxy-4-{6-[2-(4-fluoro-2,7-dimethyl-indol-1-yl)-ethylamino]-pyrimidin-4-yl}-benzoic acid]	–	–	2 nM	976 nM

Further lines, results first:

IC50 (PTGER2 (EP2); [1])	IC50 (PTRGER4 (EP4); [2])	IC50 (PTGER2 (EP2); [3])	IC50 (PTRGER4 (EP4); [4])	Compound
54 nM	185 nM	–	–	COc1cc(F)cc2c1cc(C)n2CCNc1cc(-c2ccc3c(c2)CC(=O)N3)ncn1 [compound 88]
19 nM	113 nM	–	–	COc1ccc(F)c2c1cc(C)n2CCNc1cc(-c2cc(Cl)c(C(=O)O)c(Cl)c2)ncn1 [compound 293]
26 nM	162 nM	–	–	COc1ccc(F)c2c1cc(C)n2CCNc1cc(-c2ccc(CO)c(C)c2)ncn1 [compound 32, (4-{6-[2-(7-Fluoro-4-methoxy-2-methyl-indol-1-yl)-ethylamino]-pyrimidin-4-yl}-2-methyl-phenyl)-methanol]
26 nM	301 nM	–	–	Cc1cc(Cl)cc2c1cc(C)n2CCNc1cc(-c2ccc(C(=O)O)c(OC(F)F)c2)ncn1 [compound 349, 4-{6-[2-(6-Chloro-2,4-dimethyl-indol-1-yl)-ethylamino]-pyrimidin-4-yl}-2-difluoromethoxy-benzoic acid]
27 nM	359 nM	–	–	COc1cc(F)cc2c1cc(C)n2CCNc1cc(-c2ccc(C(=O)O)c(C3CC3)c2)ncn1 [compound 382]
50 nM	184 nM	–	–	COc1ccc(F)c2c1cc(C)n2CCNc1cc(-c2ccc3nccnc3c2)ncn1 [compound 376]
12 nM	224 nM	–	–	CCC1NC(=O)c2ccc(-c3cc(NCCn4c(C)cc5c(OC)cccc54)ncn3)cc21 (racemic) [compound 196]
48 nM	204 nM	–	–	CCc1cc(-c2cc(NCCn3c(C)cc4c(OC)cccc43)ncn2)cc(Cl)c1C(=O)O [compound 160, 2-Chloro-6-ethyl-4-{6-[2-(4-methoxy-2-methyl-indol-1-yl)-ethylamino]-pyrimidin-4-yl}-benzoic acid]
7 nM	259 nM	–	–	COc1ccc(F)c2c1cc(C)n2CCNc1cc(-c2ccc(C(=O)O)c(C3CC3)c2)ncn1 [compound 296, 2-Cyclopropyl-4-{6-[2-(7-fluoro-4-methoxy-2-methyl-indol-1-yl)-ethylamino]-pyrimidin-4-yl}-benzoic acid]
35 nM	925 nM	–	–	Cc1ccc2c(c1)cc(C)n2CCNc1cc(-c2ccc(C(=O)O)c(CC(C)C)c2)ncn1 [compound 262]
10 nM	296 nM	–	–	CCC1NC(=O)c2ccc(-c3cc(NCCn4c(C)cc5c(OC)ccc(F)c54)ncn3)cc21 (racemic) [compound 319]
4 nM	235 nM	–	–	COc1cccc2c1cc(C)n2CCNc1cc(-c2cc(F)c(C(=O)O)s2)ncn1 [compound 49]
56 nM	468 nM	–	–	CCCc1cc(-c2cc(NCCn3c(C)cc4cc(C)cc(Cl)c43)ncn2)cc(Cl)c1C(=O)O [compound 335]
11 nM	86 nM	–	–	COc1cc(F)cc2c1cc(C)n2CCNc1cc(-c2ccc(-c3ccn(C)n3)cc2)ncn1 [compound 309, [2-(6-Fluoro-4-methoxy-2-methyl-indol-1-yl)-ethyl]-{6-[4-(1-methyl-1H-pyrazol-3-yl)-phenyl]-pyrimidin-4-yl}-amine]
–	–	9 nM	34 nM	CCOc1cc(-c2cc(NCCn3c(C)cc4c(OC)ccc(F)c43)ncn2)sc1NC(=O)CCO [Example 1074, N-(3-Ethoxy-5-{6-[2-(7-fluoro-4-methoxy-2-methyl-indol-1-yl)-ethylamino]-pyrimidin-4-yl}-thiophen-2-yl)-3-hydroxy-propionamide]
5 nM	894 nM	–	–	Cc1cc2c(F)ccc(F)c2n1CCNc1cc(-c2ccc(C(=O)O)c(C3CC3)c2)ncn1 [compound 173, 2-Cyclopropyl-4-{6-[2-(4,7-difluoro-2-methyl-indol-1-yl)-ethylamino]-pyrimidin-4-yl}-benzoic acid]
33 nM	491 nM	–	–	CCc1cc(-c2cc(NCCn3c(C)cc4c(C)ccc(F)c43)ncn2)cc(F)c1C(=O)O [compound 265]
